# Assay results taken from patent publication US20070099250A1, “Methods for treating proliferative diseases and for monitoring the effectiveness of treatment of proliferative diseases” (priority 2003, published 2007).
# Tests used:
# [1] = test system: Heat-shock 110 kD protein; assay: Inverse labeling-MS phosphopeptide analysis of HCT116 cell lysate treated with BPMI; format: cell-based, human; details: HCT116 cells, 20 μM BPMI, 1.5 hours; phosphopeptide IEpSPKLER
# Experimental: (§1) Human colorectal cell line HCT116 cells are grown in 6-well plates. Prior to harvesting, the cells are treated with 20 μM of the Raf inhibitor BPMI and DMSO control for 1.5 hours, respectively. Cells are then rinsed with PBS, and lysed for 5 minutes at 4° C. in Doriano lysis buffer with 100 μg/mL Perfabloc/2 μg/mL aprotinin/2 μg/mL leupeptin/1 mM NaVO4/10 mM NaF. The supernatant of the lysates are collected after centrifugation at 3,000 rpm for 5 minutes. The protein concentration is determined using Bio-Rad reagent, and the lysates are frozen at −80° C. prior to fkrther processing and analysis.
# (§2) One μL of RNase A (20 mg/mL, Sigma, St Louis, Mo.) and 1 μL of RNase T1 (10 units/mL, Invitrogen, Carlsbad, Calif.) are added to each 1 mL of lysates (total 3 mg of HCT116-DMSO control and 3 mg of HCT116-BPMI, respectively), and incubated at 37° C. for half an hour to degrade RNAs. Proteins are denatured using 6 M guanidine HCl, followed by reduction with 20 mM 1,4-dithio-DL-threitol (DTT) at 58° C. for 40 minutes and alkylation with 40 mM iodoacetamide at room temperature for 30 minutes in the dark. Each protein solution is transferred to a Slide-A-Lyzer (10,000 MW cutoff, Pierce, Rockford, IL) dialysis cassette and dialyzed against 2 to 0 M urea/50 mM ammonium bicarbonate to remove small molecule impurities and buffer exchange to 50 mM ammonium bicarbonate. Proteolysis is carried out using modified, sequencing grade trypsin (Promega, Madison, Wiss.) at a 1:200 trypsin-to-protein ratio (wt:wt) in 50 mM ammonium bicarbonate at 37° C. overnight.
# (§3) The peptide digests are filtered through Centricon Filters (10,000 MW cutoff, Millipore, Bedford, Mass.) to remove large molecule impurities including detergents. Flow-through (peptides) is collected. Solvent and ammonium bicarbonate are subsequently removed by SpeedVac drying.
# (§4) d0- or d3-methanolic HCl (2M) (methyl esterification reagent) is prepared by adding 160 μL of acetyl chloride to 1 niL of anhydrous d0-methyl alcohol or d3-methyl d-alcohol drop wise while stirring. After 10 minutes, 1 mL of the methyl esterification reagent is added to 1.5 mg of lyophilized peptide mixture. The reaction is performed in parallel to two identical aliquots for every sample, one using d0-reagent and one using d3-reagent, respectively. The reaction is allowed to proceed at room temperature for 30 minutes. The excess reagents are removed by SpeedVac drying. Subsequently the peptide mixtures are reconstituted with water. The inverse labeling is achieved by mixing d0-control with d3-treated (BPMI) and d3-control with d0-treated.
# (§5) Enrichment of phosphopeptides is performed on a 2.1×30 mm IMAC column (POROS 20 MC, Applied Biosystems, Foster City, Calif.). Briefly, the column is washed with water, 100 mM EDTA in 1 M NaCl, followed by water and 1% acetic acid. The column is then activated with 100 mM FeCl3. […] of the inversely labeled methyl esterified peptide mixture (500 μg each form of d0 and d3) is dissolved in 1% acetic acid in 50% acetonitrile/water, and loaded onto iron-activated IMAC column. The unbound peptides are removed by washing with 1% acetic acid in 50% acetonitrile/water. The bound phosphopeptides are eluted with 2% ammonium hydroxide in 50% acetonitrile/water (pH approximately 9 to 10). Acetic acid is added to neutralize the eluent prior to SpeedVac drying. The phosphopeptide mixture is reconstituted with 0.1% formic acid and analyzed using capillary LC/MS, as described below.
# (§6) An Ultimate capillary/nano HPLC system (LC Packings, San Francisco, Calif.) with a Swichos micro column-switching module (LC Packings, San Francisco, Calif.) is used for analysis. Separation is carried out on a 0.18×150 mm capillary column, packed with 3 μm C18 stationary phase of 300-Å pore size (PepMap, LC Packings, San Francisco, Calif.), operating at a flow rate of 2 μL/min. Mobile phase A consists of 0.1% (v/v) formic acid in water and mobile phase B of 0.1% (v/v) formic acid in acetonitrile. […]
# [2] = test system: Oncogene EMS1; assay: as above; format: cell-based, human; details: HCT116 cells, 20 μM BPMI, 1.5 hours
# Experimental: as §1, §2, §3, §4, §5, §6
# [3] = test system: Oncoprotein 18; assay: as above; format: cell-based, human; details: for Change (treated/control) in phosphorylation / Change in phosphorylation, % down: HCT116 cells, 20 μM BPMI, 1.5 hours
# Experimental: as §1, §2, §3, §4, §5, §6
# [4] = test system: Epithelial-cadherin (mouse/human); assay: Inverse labeling-MS analysis of DU145 tumor tissue lysates, mouse tumor xenograft, in vivo BPMI; details: 1 hour BPMI treatment, 200 mg/kg p.o., phosphopeptide MRDWVIPPIpSCPENEK
# Experimental: (§7) The phosphoproteome mapping method is further tested/applied to an in vivo study of the Raf inhibitor, BPMI (one-hour treatment, 200 mg/kg p.o.), in the analysis of tissue lysates of mouse tumor xenograft.
# (§8) The methyl esterification/IMAC procedure is successful in removing the blood contamination from the tissue samples. […] Additional changes in phosphorylation are also detected which includes oncogene EMS1, mouse fetuin and Epithelial-cadherin (see Table 2).
# [5] = test system: Mouse fetuin; assay: as above; details: 1 hour BPMI treatment, 200 mg/kg p.o., phosphopeptide VoxMHTQCHSTPDpSAEDVR
# Experimental: as §7, §8
# [6] = test system: Oncogene EMS1; assay: as above; details: 1 hour BPMI treatment, 200 mg/kg p.o.
# Experimental: as §7, §8
# [7] = test system: Oncoprotein 18; assay: as above; details: for Change (treated/control) in phosphorylation / Change in phosphorylation, % down: DU145 tumor tissue, 1 hour BPMI treatment, 200 mg/kg p.o.
# Experimental: as §7, §8
# [8] = test system: OP18 Ser25 phosphorylation; assay: Western blot analysis of Raf-inhibitor-treated HCT116 cell lysates, phospho-Ser25 specific OP18 antibody; format: cell-based, human
# Experimental: HCT1 16 cells are prepared. as in Example 1 above and treated with a Raf inhibitor (BPMI) for 1.5 hr. Cells are lysed in Incomplete Laemmli buffer (0.1 IM Tris.Cl pH 7.0, 4% SDS, 10% glycerol), and passed through a syringe fitted with 25 gauge needle to break apart genomic DNA. The lysate is boiled for 5 minutes, and loaded onto 10% SDS-PAGE gel. Proteins in the SDS-PAGE gel are then transferred to nitrocellulose membrane. The membrane is blocked with 5% milk for 1 hr, and incubated with the an antibody specific for Ser^25 phosphorylated OP18 for an additional hour. The phosphor-Ser^25 specific OP18 antibody is raised in rabbit using standard techniques and purification known in the art. The amino acid sequence used to generate phosphor-Ser^25 specific OP18 antibody is ELILpSPRSKESVPEFP (SEQ ID NO:_). The blot is washed three times with TBST 15 minutes each, and then incubated with anti-rabbit HRP-conjugated antibody for 1 hr. The blot is washed three times with TBST 15 minutes each, and the antibody bound proteins are labeled using SuperSignal West Dura Extended Duration substrate (Piece Biotechnologies, Rockford, Ill.). The phosphorylated OP18 proteins are detected via exposing the blot through a film (Eastman Kodak, Rochester, N.Y.).
# (§9) The treatment of HCT116 cells with BPMI leads to the inhibition of OP18 phosphorylation at Ser^25 residue (data not shown). […] Additional data also provides that BPMI inhibits OP18 Ser^25 phosphorylation with an IC50 of approximately 5 μM. Thus, it appears that both MAPK and OP18 Ser^25 phosphorylation are inhibited at a similar level for a given dose of a raf inhibitor.
# [9] = test system: MAPK pathway in HCT116 cells; assay: Inhibition of MAPK pathway in HCT116 cells; format: cell-based, human
# Experimental: as §9
# [10] = phosphopeptide LPS*pSPVYEDAASFK
# [11] = phosphopeptide T*QpTPPVpSPAPQPTEER
compound,measurement,setting,value
"CC(C)(C)c1ccc(Nc2ncc(Cc3ccncc3)c3ccccc23)cc1 [BPMI, 1-(4-t-butylanilino)-4-[(pyridin-4-yl)-methyl]-isoguinoline]",Change (treated/control) in phosphorylation,[1],0.7
same,"Change in phosphorylation, % down",[1],(30% down)
same,Change (treated/control) in phosphorylation,[2]; [10],0.8
same,"Change in phosphorylation, % down",[2]; [10],(20% down)
same,Change (treated/control) in phosphorylation,[2]; [11],0.7
same,"Change in phosphorylation, % down",[2]; [11],(30% down)
same,Op18 Ser25 phosphorylation upon BPMI treatment (FIG. 1),"[3]; HCT116 cell lysate, inverse labeling-MS",Down-regulation
same,Change (treated/control) in phosphorylation,[3]; phosphopeptide ASGQAFELILpSPR,0.4
same,"Change in phosphorylation, % down",[3]; phosphopeptide ASGQAFELILpSPR,(60% down)
same,Change (treated/control) in phosphorylation,[3]; phosphopeptide SKESVPEFPLpSPPK,0.6
same,"Change in phosphorylation, % down",[3]; phosphopeptide SKESVPEFPLpSPPK,(40% down)
same,Change (treated/control) in phosphorylation,[4],0.5
same,"Change in phosphorylation, % down",[4],(50% down)
same,Change (treated/control) in phosphorylation,[5],0.6
same,"Change in phosphorylation, % down",[5],(40% down)
same,Change (treated/control) in phosphorylation,[6]; [10],0.7
same,"Change in phosphorylation, % down",[6]; [10],(30% down)
same,Change (treated/control) in phosphorylation,[6]; [11],0.6
same,"Change in phosphorylation, % down",[6]; [11],(40% down)
same,Change (treated/control) in phosphorylation,[7]; phosphopeptide ASGQAFELILpSPR,0.4
same,"Change in phosphorylation, % down",[7]; phosphopeptide ASGQAFELILpSPR,(60% down)
same,Change (treated/control) in phosphorylation,[7]; phosphopeptide SKESVPEFPLpSPPK,0.8
same,"Change in phosphorylation, % down",[7]; phosphopeptide SKESVPEFPLpSPPK,(20% down)
same,OP18 Ser25 phosphorylation in vivo (FIG. 2B),"[7]; tumor tissue DU145, methyl esterification/IMAC",down-regulation
same,"OP18 phosphorylation at Ser25 residue, Western blot","[8]; HCT116 cells, 1.5 hr treatment (data not shown)",inhibition
same,"Phosphorylation seen at Ser25 residue of the OP18 protein, Western blot","[8]; HCT116 cells, at 10 μM",almost no phosphorylation
same,IC50,"[8]; additional data, read-out: IC50 for inhibition of OP18 Ser25 phosphorylation",~5 µM
same,IC50,[9],5.3 µM
